Assay results as given in ChEMBL document CHEMBL1125783, “Novel 1-phenylcycloalkanecarboxylic acid derivatives as potential anticonvulsant agents” (1991).
“And” between values parts separate entries of the source, which are not always exact repeats. Identical values can stand only once. The source made the active and inactive calls. The calls are words filed in the database; no cut-off is given here.

System: Rattus norvegicus
Experiment: Anticonvulsant activity in rats using MES (maximal electroshock) after subcutaneous administration; IA-Inactive up to dose of 50 mg/kg
Format: functional, organism-based
Design: dose 50 mg/kg
Conditions: not given

Structure (SMILES) | ED50
CCN(CC)CCOCCNC(=O)C1(c2ccccc2)CCCCC1 | inactive
CCN(CC)CCOCCN(C)CC1(c2ccccc2)CCCC1 | inactive
CCN(CC)CCOCCNC(=O)C1(c2ccccc2)CCCC1 | inactive
CCN(CC)CCOCCNCC1(c2ccccc2)CCCCC1 | inactive
CCN(CC)CCOCCNCC1(c2ccccc2)CCCC1 | inactive

System: Rattus norvegicus
Experiment: Anticonvulsant activity in rats, using MES(maximal electroshock), after subcutaneous administration.
Format: functional
Conditions: sc

Structure (SMILES) | ED50
CCN(CC)CCOCCOCC1(c2ccccc2)CCCCC1 | 86 µmol/kg
O=C1NC(=O)C(c2ccccc2)(c2ccccc2)N1 [PHENYTOIN] | 30 µmol/kg

System: Rattus norvegicus
Experiment: Anticonvulsant activity in rats using MES (maximal electroshock) after subcutaneous administration
Format: functional
Conditions: sc

Structure (SMILES) | ED50
CCN(CC)CCOCCOCC1(c2ccccc2)CCCC1 | 7 mg/kg and 16 µmol/kg
CCN(CC)CCOCCOC(=O)C1(c2ccccc2)CCCCC1 | 93 mg/kg and 173 µmol/kg
CCN(CC)CCOCCOC(=O)C1(c2ccccc2)CCCC1 [CARBETAPENTANE] | 25 mg/kg and 48 µmol/kg
CCN(CC)CCOCCOCC1(c2ccccc2)CCCCC1 | 37 mg/kg
O=C1NC(=O)C(c2ccccc2)(c2ccccc2)N1 [PHENYTOIN] | 8 mg/kg
